Assay results: US8329918B2, “Selective alpha 2B/2C agonists” (priority 2009, dated 2012)
Read-outs that look alike come from different tables or passages of the source.

How the values were obtained:
Assay type in all cases: cell-based
alpha2C receptor = target: T1, alpha2C receptor (Homo sapiens, UniProt P18825); experiment: RSAT assay, alpha 2C; settings: for (rel. efficacy) Alpha 2C: ratio of maximal effect to standard full agonist brimonidine (UK14304)
T1 construct: expressed in transfected cells; host or cells: NIH-3T3
T1 sequence (P18825 1-462): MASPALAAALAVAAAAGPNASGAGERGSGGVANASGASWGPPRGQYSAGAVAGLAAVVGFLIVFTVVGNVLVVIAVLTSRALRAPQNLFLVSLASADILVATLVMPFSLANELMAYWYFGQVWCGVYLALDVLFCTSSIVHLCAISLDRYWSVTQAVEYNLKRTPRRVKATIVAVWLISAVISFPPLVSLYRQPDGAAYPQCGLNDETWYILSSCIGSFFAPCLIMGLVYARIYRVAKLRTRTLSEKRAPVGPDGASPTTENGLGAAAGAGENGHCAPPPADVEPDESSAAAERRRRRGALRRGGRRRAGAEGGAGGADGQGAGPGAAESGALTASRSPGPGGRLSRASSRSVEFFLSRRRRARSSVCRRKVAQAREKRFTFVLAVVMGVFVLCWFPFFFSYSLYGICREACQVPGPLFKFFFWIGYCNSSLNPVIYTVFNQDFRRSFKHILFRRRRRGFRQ
Protocol: (§1) Selected presently described compounds were synthesized and tested for alpha adrenergic activity using the Receptor Selection and Amplification Technology (RSAT) assay. Cells expressing each of the alpha-2-adrenergic receptors alone were incubated with various compounds and a receptor-mediated growth response was measured. The compound's activity is expressed as its relative efficacy compared to a standard full agonist.
(§2) The RSAT assay measures a receptor-mediated loss of contact inhibition that results in selective proliferation of receptor-containing cells in a mixed population of confluent cells. The increase in cell number is assessed with an appropriate transfected marker gene such as β-galactosidase, the activity of which can be easily measured in a 96-well format. Receptors that activate the G protein, Gq, elicit this response. Alpha2 receptors, which normally couple to Gi, activate the RSAT response when coexpressed with a hybrid Gq protein that has a Gi receptor recognition domain, called Gq/i5.
(§3) NIH-3T3 cells are plated at a density of 2×10^6 cells in 15 cm dishes and maintained in Dulbecco's modified Eagle's medium supplemented with 10% calf serum. One day later, cells are cotransfected by calcium phosphate precipitation with mammalian expression plasmids encoding p-SV-β-galactosidase (5-10 μg), receptor (1-2 μg) and G protein (1-2 μg). 40 μg salmon sperm DNA may also be included in the transfection mixture. Fresh media is added on the following day and 1-2 days later, cells are harvested and frozen in 50 assay aliquots. Cells are thawed and […] added to […] aliquots of various concentrations of drugs in triplicate in 96-well dishes. Incubations continue 72-96 hr at 37° C. After washing with phosphatebuffered saline, β-galactosidase enzyme activity is determined by adding 200 μl of the chromogenic substrate (consisting of 3.5 mM o-nitrophenyl-β-D-galactopyranoside and 0.5% nonidet P-40 in phosphate buffered saline), incubating overnight at 30° C. and measuring optical density at 420 nm. The absorbance is a measure of enzyme activity, which depends on cell number and reflects a receptor-mediated cell proliferation. The EC50 and maximal effect of each drug at each alpha2 receptor is determined. The efficacy or intrinsic activity is calculated as a ratio of the maximal effect of the drug to the maximal effect of a standard full agonist for each receptor subtype. Brimonidine, also called UK14304, is used as the standard agonist for the alpha2A, alpha2B, and alpha2C receptors.
(§4) The compounds activity is expressed as its relative efficacy compared to a standard full agonist.

alpha2B receptor = target: T2, alpha2B receptor (Homo sapiens, UniProt P18089); experiment: RSAT assay, alpha 2B; settings: for (rel. efficacy) Alpha 2B: ratio of maximal effect to standard full agonist brimonidine (UK14304)
T2 construct: expressed in transfected cells; host or cells: NIH-3T3
T2 sequence (P18089 1-450): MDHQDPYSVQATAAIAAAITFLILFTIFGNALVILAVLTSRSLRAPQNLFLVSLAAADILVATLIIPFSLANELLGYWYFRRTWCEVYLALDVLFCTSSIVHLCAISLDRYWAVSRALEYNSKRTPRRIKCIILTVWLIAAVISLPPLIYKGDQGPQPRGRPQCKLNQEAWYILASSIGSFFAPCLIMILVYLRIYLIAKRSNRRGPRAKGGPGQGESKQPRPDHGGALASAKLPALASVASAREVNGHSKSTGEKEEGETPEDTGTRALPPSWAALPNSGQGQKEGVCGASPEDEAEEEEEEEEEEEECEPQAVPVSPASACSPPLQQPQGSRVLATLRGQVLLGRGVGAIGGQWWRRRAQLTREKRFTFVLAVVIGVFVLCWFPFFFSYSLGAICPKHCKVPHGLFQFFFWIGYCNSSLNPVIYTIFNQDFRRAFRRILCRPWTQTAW
Protocol: as §1, §2, §3, §4

alpha2A receptor = target: T3, alpha2A receptor (Homo sapiens, UniProt P08913); experiment: RSAT assay, alpha 2A; settings: for (rel. efficacy) Alpha 2A: ratio of maximal effect to standard full agonist brimonidine (UK14304)
T3 sequence (P08913 1-465): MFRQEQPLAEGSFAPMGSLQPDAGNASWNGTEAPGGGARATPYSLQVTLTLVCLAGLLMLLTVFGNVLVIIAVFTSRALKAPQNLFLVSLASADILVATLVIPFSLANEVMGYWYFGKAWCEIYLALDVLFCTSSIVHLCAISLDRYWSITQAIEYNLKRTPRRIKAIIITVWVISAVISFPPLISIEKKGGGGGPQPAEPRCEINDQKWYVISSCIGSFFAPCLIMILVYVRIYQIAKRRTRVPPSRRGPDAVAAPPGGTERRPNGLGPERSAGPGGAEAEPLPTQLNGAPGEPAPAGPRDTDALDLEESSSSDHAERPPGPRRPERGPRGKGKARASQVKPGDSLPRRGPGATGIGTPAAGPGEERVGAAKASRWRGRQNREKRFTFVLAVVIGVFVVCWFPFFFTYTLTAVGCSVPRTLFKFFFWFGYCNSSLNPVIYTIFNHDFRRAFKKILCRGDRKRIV
Protocol: as §1, §2, §3, §4

[1] = RSAT, NIH-3T3 cells, NA = not active, read-out: EC50 (nM) Alpha 2C
[2] = RSAT, NIH-3T3 cells, NA = not active, read-out: EC50 (nM) Alpha 2A
[3] = RSAT, NIH-3T3 cells, NA = not active, read-out: EC50 (nM) Alpha 2B

SMILES	EC50 (alpha2C receptor; [1]) [nM]	(rel. efficacy) Alpha 2C (alpha2C receptor; RSAT)	EC50 (alpha2B receptor) [nM]	(rel. efficacy) Alpha 2B (alpha2B receptor; RSAT)	EC50 (alpha2A receptor; [2]) [nM]	(rel. efficacy) Alpha 2A (alpha2A receptor; RSAT)	EC50 (alpha2C receptor) [nM]	EC50 (alpha2B receptor; [3]) [nM]	EC50 (alpha2A receptor) [nM]
Clc1ccccc1CNC1=NCCS1	699	0.66	50	0.85	–	–	–	–	–
COc1c(Br)cccc1CNC1=NCCS1	109	0.81	31	1.1	621	0.55	–	–	–
Fc1c(I)cccc1CNC1=NCCS1	–	1.05	6	1.0	589	1.07	88	–	–
Clc1cccc(CNC2=NCCS2)c1Cl	–	0.68	28	0.94	–	–	252	–	–
FC(F)(F)c1cccc(CNC2=NCCO2)c1Cl	189	0.81	5	0.96	–	–	–	–	–
Fc1ccc(Br)cc1CNC1=NCCS1	2060	0.64	–	0.85	–	–	–	280	–
COc1c(Cl)cccc1CNC1=NCCS1	–	0.73	22	1.08	–	0.38	99	–	701
FC(F)Oc1cccc(CNC2=NCCO2)c1	–	0.49	–	0.6	–	–	60	217	–
Brc1ccccc1CNC1=NCCS1	–	0.77	29	0.84	–	0.37	190	–	2780
Fc1cccc(CNC2=NCCO2)c1	–	0.59	39	0.82	–	–	17	–	–
Brc1ccccc1CNC1=NCCO1	–	0.85	5	1.09	–	–	85	–	–
Clc1ccc(Br)cc1CNC1=NCCO1	–	0.71	20	0.98	–	–	81	–	–
Clc1c(Br)cccc1CNC1=NCCS1	198	0.98	18	1.01	–	0.4	–	–	> 3000
Clc1cccc(CNC2=NCCO2)c1Cl	–	0.91	5	1.05	–	–	92	–	–
Clc1cccc(CNC2=NCCS2)c1Br	303	0.68	40	0.85	–	–	–	–	–
Fc1c(Cl)cccc1CNC1=NCCS1	–	0.7	107	1.01	–	–	535	–	–
Clc1ccccc1CNC1=NCCO1	–	0.83	3.3	1.02	–	–	42	–	–
COc1ccccc1CNC1=NCCO1 [drawing 17]	181	0.53	13.4	1.09	–	–	–	–	–
